From US20100249145A1, “Inhibitors of VEGF Receptor and HGF Receptor Signaling” (Methylgene, Inc., priority 2005, published 2010) come the findings set out here.

Where a name gives a salt, the structure may show the parent alone. Read-outs that look alike come from different tables or passages of the source.

Assay [1] addresses T1, recombinant human c-Met/HGF receptor (Homo sapiens, UniProt P08581).
T1 construct: His tag (histidine tag from pBlueBacHis2A); made in house; host or cells: Hi-5 cells (Trichoplusia ni), recombinant baculovirus
The assay can be described thus: In vitro receptor tyrosine kinase assay (DELFIA), c-Met/HGF receptor. It counts as biochemical. The settings on record: ATP 10 uM, enzyme 25 nM.

The target in a further assay is T2, VEGF receptor KDR (Homo sapiens, UniProt P35968).
T2 construct: made in house; host or cells: Sf9 cells (Spodoptera frugiperda), recombinant baculovirus
The assay can be described thus: In vitro receptor tyrosine kinase assay (DELFIA), VEGF receptor KDR. The settings on record: ATP 0.6 uM, enzyme 5 nM. The class given is biochemical.

For another assay, the target named is TPR-MET fusion protein (Homo sapiens, UniProt P08581). Description: C-Met phosphorylation cell-based assay (MNNGHOS cells, immunoblot). Particulars: Table 30, 3 hours treatment, read-out: C-Met cell-based Y1230-34-35 tpr-met inhibition (IC50). The text has this: C-Met Phosphorylation Cell-Based Assay
Assay [2] concerns A549. Description: In vivo solid tumor disease model, A549 xenograft. More on the design: species or system female athymic CD 1 mice.
For the next assay, the system named is U87 cells. The assay can be described thus: In vivo solid tumor disease model, U87 xenograft. Set-up: species or system female athymic CD 1 mice. The settings on record: U87MG; 100 mg/kg once daily PO; vehicle 5% DMSO - 1% Tween-80 in water; 14 days. The text has this: (§1) In Vivo Solid Tumor Disease Model
(§2) This test measures the capacity of compounds to inhibit solid tumor growth.
(§3) Tumor xenografts were established in the flank of female athymic CD 1 mice (Charles River Inc.), by subcutaneous injection of 1×10^6U87, A431 or SKLMS cells/mouse. Once established, tumors were then serially passaged s.c. in nude mice hosts. Tumor fragments from these host animals were used in subsequent compound evaluation experiments. For compound evaluation experiments female nude mice weighing approximately 20 g were implanted s.c. by surgical implantation with tumor fragments of ˜30 mg from donor tumors. When the tumors were approximately 100 mm^3 in size (˜7-10 days following implantation), the animals were randomized a separated into treatment and control groups. Each group contained 6-8 tumor-bearing mice, each of which was ear-tagged and followed individually throughout the experiment
(§4) Mice were weighed and tumor measurements are taken by calipers three times weekly, starting on Day 1. These tumor measurements were converted to tumor volume by the well-known formula (L+W/4)^34/3π. The experiment was terminated when the control tumors reached a size of approximately 1500 mm^3. In this model, the change in mean tumor volume for a compound treated group/the change in mean tumor volume of the control group (non-treated or vehicle treated)×100 (ΔT/ΔC) was subtracted from 100 to give the percent tumor growth inhibition (% TGI) for each test compound. In addition to tumor volumes, body weight of animals were monitored twice weekly for up to 3 weeks.
(§5) Regiment of administration was once daily.

The subject of a further assay is SKLMS cells. Description: In vivo solid tumor disease model, SKLMS xenograft. Set-up: species or system female athymic CD 1 mice. The settings on record: SKLMS40; 75 mg/kg once daily PO; vehicle 5% DMSO - 1% Tween-80 in water; 14 days.
Excerpt: as §1, §2, §3, §4, §5

For assay [3], the system named is A549. The assay can be described thus: A549 wound healing inhibition (HGF dependent migration). The class given is cell-based. Particulars: Homo sapiens, Table 31, read-out: A549 wound healing inbib IC50. The source says:
(§6) HGF has well known activity in terms of inducing scattering and migration (wound healing) (Wells et al., Cell Motil Cytoskeleton. 2005 November 62(3):180-94; Miura et al., Urology 2001 December 58(6):1064-9; Nishimura et al., Int J. Urol. 1998 May 5(3):276-81; Wang et al., Mol Cancer Ther. 2003 November; 2(11):1085-92; and Christensen et al., Cancer Res. 2003 Nov. 1; 63(21):7345-55).

The next assay has as its system DU145. Description: DU145 scattering inhibition (HGF dependent scattering). It counts as cell-based. Particulars: Homo sapiens, DU-145, Table 31, read-out: DU145 scattering inhib IC50.
Excerpt: as §6

The mark [4] stands for this setting: Table 30, read-out: C-Met (enz.) (IC50).
The mark [5] stands for this setting: Table 30, read-out: VEGF(enz.) (IC50).

T1 sequence (P08581 1078-1337): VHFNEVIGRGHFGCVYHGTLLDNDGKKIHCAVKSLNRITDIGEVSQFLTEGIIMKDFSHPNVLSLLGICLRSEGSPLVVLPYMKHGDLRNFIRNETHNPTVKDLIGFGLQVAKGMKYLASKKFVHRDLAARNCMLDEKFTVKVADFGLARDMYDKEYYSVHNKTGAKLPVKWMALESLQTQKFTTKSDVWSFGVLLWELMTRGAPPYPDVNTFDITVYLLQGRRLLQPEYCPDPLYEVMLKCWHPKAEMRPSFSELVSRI
Chain of TPR-MET fusion protein (P08581 with tags, fused parts or gaps): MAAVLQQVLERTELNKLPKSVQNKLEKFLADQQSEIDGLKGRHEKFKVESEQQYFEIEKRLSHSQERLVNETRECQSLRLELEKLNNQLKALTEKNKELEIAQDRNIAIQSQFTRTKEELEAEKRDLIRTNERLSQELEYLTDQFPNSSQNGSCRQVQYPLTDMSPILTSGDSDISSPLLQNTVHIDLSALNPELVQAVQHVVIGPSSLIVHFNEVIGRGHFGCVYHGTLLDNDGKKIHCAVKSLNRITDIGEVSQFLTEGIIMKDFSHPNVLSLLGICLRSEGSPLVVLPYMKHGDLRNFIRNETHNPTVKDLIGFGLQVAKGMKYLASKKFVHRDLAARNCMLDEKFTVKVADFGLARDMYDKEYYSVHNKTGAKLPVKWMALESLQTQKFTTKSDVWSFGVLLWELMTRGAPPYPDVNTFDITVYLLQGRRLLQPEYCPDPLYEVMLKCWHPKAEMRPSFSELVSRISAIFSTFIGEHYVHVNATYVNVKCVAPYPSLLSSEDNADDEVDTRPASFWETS
T2 sequence (P35968 806-1356): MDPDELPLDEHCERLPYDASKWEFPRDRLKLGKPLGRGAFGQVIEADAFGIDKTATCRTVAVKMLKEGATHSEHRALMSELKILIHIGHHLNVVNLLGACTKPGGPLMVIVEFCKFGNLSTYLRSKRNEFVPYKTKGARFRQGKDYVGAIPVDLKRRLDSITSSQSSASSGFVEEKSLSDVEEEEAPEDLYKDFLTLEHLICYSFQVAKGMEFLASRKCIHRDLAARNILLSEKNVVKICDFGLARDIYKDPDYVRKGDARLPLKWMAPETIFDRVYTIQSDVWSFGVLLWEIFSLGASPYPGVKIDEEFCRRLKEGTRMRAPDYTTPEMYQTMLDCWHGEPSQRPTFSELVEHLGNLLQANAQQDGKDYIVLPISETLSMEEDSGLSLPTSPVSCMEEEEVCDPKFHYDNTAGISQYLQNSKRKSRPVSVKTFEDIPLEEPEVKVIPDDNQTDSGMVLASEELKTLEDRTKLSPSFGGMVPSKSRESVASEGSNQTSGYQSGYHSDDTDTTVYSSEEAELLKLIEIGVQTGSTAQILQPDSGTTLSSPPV

On to “1-(4-(2- (morpholinylcarbamoyl) thieno[3,2- b]pyridin-7-yloxy)-3- fluorophenyl)-3-(2- phenylacetyl)thiourea [Example 3]”, for which the IC50 (as a rule, the point on the concentration scale where inhibition reaches its midpoint) lay in the range of 50 to 250 nM in assay [1] (setting [4]), 250 to 500 nM on VEGF receptor KDR (setting [5]) and 50 to 250 nM at TPR-MET fusion protein.
With “1-(4-(6-(4-N- Methylpiperazylcarbamoyl) thieno[3,2- d]pyrimidin-4-yloxy)- 3-fluorophenyl)-3-(2- phenylacetyl)thiourea [Example 24]”, the figures for the IC50 (in assay [1] (setting [4]); at VEGF receptor KDR (setting [5]); on TPR-MET fusion protein) were 50 to 250 nM, 250 to 500 nM and above 500 nM, respectively.
The corresponding values for `O=C(Cc1ccccc1)NC(=S)Nc1ccc(Oc2ccnc3cc(C(=O)NCCN4CCOCC4)sc23)c(F)c1` [Example 2, l-(4-(2-(2-morpholinoethylcarbamoyl)thieno[3,2-b]pyridin-7-yloxy)-3-fluorophenyl)-3-(2-phenylacetyl)thiourea] are 50 to 250 nM, below 50 nM and 50 to 250 nM.
The corresponding values for `CON(C)C(=O)c1cc2nccc(Oc3ccc(NC(=S)NC(=O)Cc4ccccc4)cc3F)c2s1` [Example 10, 1-(4-(2-(N-methoxy-N-methylcarbamoyl)thieno[3,2-b]pyridin-7-yloxy)-3-fluorophenyl)-3-(2-phenylacetyl)thiourea] are 50 to 250 nM, 50 to 250 nM and 50 to 250 nM.
For `COC(=O)C(C)N(C(=S)NC(=O)Cc1ccccc1)c1ccc(Oc2ccnc3cc(C(N)=O)sc23)c(F)c1` (stereo not drawn) [Example 11, Methyl 2-(1-(4-(2-(carbamoyl)thieno [3,2-b]pyridin-7-yloxy)-3-fluorophenyl)-3-(2-phenylacetyl)thioureido) propanoate], in that order: 50 to 250 nM, above 500 nM and 50 to 250 nM.
As for `O=C(Cc1ccccc1)NC(=S)Nc1ccc(Oc2ncnc3cc(C(=O)NCCN4CCOCC4)sc23)c(F)c1` [Example 22, 1-(4-(6-(2-Morpholinoethylcarbamoyl)thieno[3,2-d]pyrimidin-4-yloxy)-3-fluorophenyl)-3-(2-phenylacetyl)thiourea], the IC50 in assay [1] (setting [4]) is 50 to 250 nM; on VEGF receptor KDR (setting [5]), 50 to 250 nM; at TPR-MET fusion protein, below 50 nM.
Take `CN(C)C(=O)c1cc2ncnc(Oc3ccc(NC(=S)NC(=O)Cc4ccccc4)cc3F)c2s1` [Example 23, 1-(4-(6-(Dimethylcarbamoyl)thieno[3,2-d]pyrimidin-4-yloxy)-3-fluorophenyl)-3-(2-phenylacetyl)thiourea]: the IC50 is 50 to 250 nM in assay [1] (setting [4]), below 50 nM at VEGF receptor KDR (setting [5]) and 50 to 250 nM on TPR-MET fusion protein.
Regarding `CN(Cc1ccco1)C(=O)c1cc2nccc(Oc3ccc(NC(=S)NC(=O)Cc4ccccc4)cc3F)c2s1` [Example 35, 7-[2-Fluoro-4-(3-phenylacetyl-thioureido)-phenoxy]-thieno[3,2-b]pyridine-2-carboxylic acid furan-2-ylmethyl-methyl-amide], the IC50 was 50 to 250 nM in assay [1] (setting [4]), 50 to 250 nM at VEGF receptor KDR (setting [5]) and below 50 nM on TPR-MET fusion protein.
As to `CC(C)N(CCNC(=O)c1cc2nccc(Oc3ccc(NC(=S)NC(=O)Cc4ccccc4)cc3F)c2s1)C(C)C` [Example 36, 7-[2-Fluoro-4-(3-phenylacetyl-thioureido)-phenoxy]-thieno[3,2-b]pyridine-2-carboxylic acid (2-diisopropylamino-ethyl)-amide, formate salt], the IC50 was 50 to 250 nM in assay [1] (setting [4]), above 500 nM on VEGF receptor KDR (setting [5]) and 50 to 250 nM at TPR-MET fusion protein.
For `O=C(Cc1ccccc1)NC(=S)Nc1ccc(Oc2ccnc3cc(C(=O)N4CC[C@H](O)C4)sc23)c(F)c1` [Example 39, (S)-N-(3-Fluoro-4-(2-(3-hydroxypyrrolidine-1-carbonyl)thieno[3,2-b]pyridin-7-yloxy)phenylcarbamothioyl)-2-phenylacetamide], the “Tumor Growth Inhibition (%)” value in the assay with A549 [2] (30 mg/kg once daily IP, vehicle DMSO, 14 days) is given as “b (% TGI in the range of 50-74)”.
As to `NC(=O)[C@@H]1CCCN1C(=O)c1cc2nccc(Oc3ccc(NC(=S)NC(=O)Cc4ccccc4)cc3F)c2s1` [Example 40, (S)-1-(7-(2-Fluoro-4-(3-(2-phenylacetyl)thioureido)phenoxy)thieno[3,2-b]pyridine-2-carbonyl)pyrrolidine-2-carboxamide], the IC50 was 50 to 250 nM in assay [1] (setting [4]), below 50 nM at VEGF receptor KDR (setting [5]) and 50 to 250 nM on TPR-MET fusion protein.
With `O=C(Cc1ccccc1)NC(=S)Nc1ccc(Oc2ccnc3cc(-c4ccc(CN5CCOCC5)cc4)sc23)c(F)c1` [Example 56, 1-(3-Fluoro-4-(2-(4-(morpholinomethyl)phenyl)thieno[3,2-b]pyridin-7-yloxy)phenyl)-3-(2-phenylacetyl)thiourea], the “Tumor Growth Inhibition (%)” value in the assay on A549 [2] (30 mg/kg once daily IP, vehicle DMSO, 12 days) is listed as “c (% TGI in the range of 25-49)”.
Turning to `CCn1ccnc1-c1cc2nccc(Oc3ccc(NC(=S)NC(=O)Cc4ccccc4)cc3F)c2s1` [Example 73, N-(4-(2-(1-Ethyl-1H-imidadzol-2-yl)thieno[3,2-b]pyridin-7-yloxy)-3-fluorophenylcarbamothioyl)-2-phenylacetamide], the “Tumor Growth Inhibition (%)” value with U87 cells is “c (% TGI in the range of 25-49)”.
Turning to `Cn1cc(-c2cc3nccc(Oc4ccc(NC(=S)NC(=O)Cc5ccccc5)cc4F)c3s2)cn1` [Example 81, N-(3-Fluoro-4-(2-(1-methyl-1H-pyrazol-4-yl)thieno[3,2-b]pyridin-7-yloxy)phenylcarbamothioyl)-2-phenylacetamide], in the assay with SKLMS cells, the “Tumor Growth Inhibition (%)” value is on record as “c (% TGI in the range of 25-49)”.
Regarding `O=C(Cc1ccccc1)NC(=S)Nc1ccc(Oc2ncnc3cc(C(=O)N4CCCC4)sc23)c(F)c1` [Example 142, N-(3-Fluoro-4-(6-(pyrrolidine-1-carbonyl)thieno[3,2-d]pyrimidin-4-yloxy)phenylcarbamothioyl)-2-phenylacetamide], the concentration for half-maximal inhibition (IC50) in assay [1] (setting [4]) was 50 to 250 nM; at VEGF receptor KDR (setting [5]) it was below 50 nM; at TPR-MET fusion protein, below 50 nM.
Consider `Cn1cnc(-c2cc3nccc(Oc4ccc(NC(=S)NC(=O)Cc5ccccc5)cc4)c3s2)c1` [Example 201, N-(4-(2-(1-Methyl-1H-imidazol-4-yl)thieno[3,2-b]pyridin-7-yloxy)phenylcarbamothioyl)-2-phenylacetamide], for which the “Tumor Growth Inhibition (%)” value in the assay with A549 [2] (30 mg/kg once daily IP, vehicle DMSO, 10 days) is listed as “c (% TGI in the range of 25-49)”; in the assay with A549 [2] (75 mg/kg once daily PO, vehicle 5% DMSO - 1% Tween-80 in water, 10 days), “c (% TGI in the range of 25-49)”.
Take `O=C(Cc1ccccc1)NC(=S)Nc1ccc(Oc2ccnc3cc[nH]c23)c(F)c1` [Example 221, N-(4-(1H-Pyrrolo[3,2-b]pyridin-7-yloxy)-3-fluorophenylcarbamothioyl)-2-phenyl acetamide]: the IC50 was below 50 nM in assay [1] (setting [4]), above 500 nM on VEGF receptor KDR (setting [5]) and above 500 nM on TPR-MET fusion protein.
`C#Cc1ccccc1CC(=O)NC(=S)Nc1ccc(Oc2ccnc3cc(-c4cn(C)cn4)sc23)c(F)c1` [drawing 451]: the half-maximal inhibitory concentration (IC50) in assay [1] (Table 31, read-out: CMet ic50) was below 50 nM; on VEGF receptor KDR (Table 31, read-out: VEGFR IC50), below 50 nM; in the assay on A549 [3], below 1000 nM; with DU145, below 1000 nM.
For `C#Cc1ccccc1CC(=O)NC(=S)Nc1ccc(Oc2ccnc3cc(-c4cn(CC)cn4)sc23)c(F)c1` [drawing 455], the IC50 was below 50 nM in assay [1] (Table 31, read-out: CMet ic50); below 50 nM at VEGF receptor KDR (Table 31, read-out: VEGFR IC50); below 1000 nM in the assay on A549 [3]; below 1000 nM with DU145.
Take `C#Cc1ccccc1CC(=O)NC(=S)Nc1ccc(Oc2ccnc3cc(-c4cn(CC)cn4)sc23)c(F)c1` [drawing 496]: the “Tumor Growth Inhibition (%)” value with A549 [2] (40 mg/kg once daily p.o., 14 days) is recorded as “b (% TGI in the range of 50-74)”.
